Test results taken from patent publication US8779004B2, “Stable emulsion formulations” (Amgen, Inc., priority 2006, dated 2014).

How the values were obtained:
rabbit ear vein = test: Acute local venous toxicity / irritation in the rabbit ear vein (REV); assay type: in vivo; design: Erythema / Edema: scale not given here
Text: This Example illustrates the protective effect of the formulations of the invention as measured by irritation in the rabbit ear vein (REV). A typical protocol for evaluation of the local tolerance for formulations was as follows.
Dosing of animals. The rabbits used were male New Zealand rabbits weighing approximately 2.5 to 4 kg. The rabbits were acclimatized for a period of 10 days following receipt before the start of the study. The rabbits were randomized into groups based on the number of formulations to be studied. Typically 3 rabbits were used per group.
For each group of rabbits, the formulation containing the drug to be tested was dosed in the right marginal ear vein, with the corresponding placebo being dosed at the same time in the left marginal ear vein. The placebos were prepared such that they matched the formulation composition, and the technique of dosing for the drug formulations and the placebo formulations were kept the same. Typical dosing volumes ranged from 1 mL/kg to 5 mL/kg. The formulations were either dosed as (a) bolus injection wherein the entire dosing volume was administered within 5 minutes; (b) 30 minute infusion; or (c) a 2 hour infusion. The formulations were administered through appropriately sized syringes and catheters. The injection sites were marked with indelible ink for identification at each observation period. The rabbits were dosed based upon the Day 1 body weight.
Observation of animals. Each animal was observed cage side at least twice daily for mortality/morbundity. Each animal received a detailed clinical observation once prior to randomization, once prior to dosage administration and once daily thereafter.
Any abnormalities were recorded as they were observed. Observations for local irritation were scored according to the following scale
At each interval the area of irritation (if present) was also measured. The actual length and width in mm was recorded.
On day 3 the animals were euthanized and the tissues from the Pinna of the left and right ear, and any gross lesions (if present) of the ear or ear vein were collected. Histopathology was performed on the collected tissues. After fixation, the pinna was tripped into a total of 4 sections of 1 cm each; one of which included the deposition site (location of the end of the catheter in the ear) and one from approximately 1-, 2-, and 3-cm downstream from the deposition site. Each section included skin, cartilage, vein and other soft tissue. These tissues were then embedded in paraffin, sectioned and stained with hematoxylin and eosin, and examined via light microscopy.

[1] = Long-term storage stability of emulsions (assay, pH, particle size); assay type: physicochemical; conditions: 5 mg/mL emulsion
Protocol: Calcimimetics emulsions for long-term studies were prepared at 5 mg/mL drug concentration, 5% SBO, 2% egg lecithin, 2% glycerin, 20 mM TRIS buffer at pH 9. The emulsions were packed in glass vials at 20 mL each and stored inverted in stability chambers. At each time-point, 3 vials from each chamber were pulled and analyzed for the calcimimetic concentration, pH and particle size. […] The values for pH dropped over time, with greater magnitude of drop seen at higher temperature.

[2] = Effect of pH and buffer type on emulsion stability (pH, particle size before/after one autoclave cycle); assay type: physicochemical; conditions: after one autoclave cycle, 2% egg lecithin
Protocol: Tables 6 summarizes the effect of pH and the buffer type on emulsion stability as measured by the particle size. Emulsions were made using 2% egg lecithin, 2.25% glycerin in water for injection. Particle size and pH were measured after one-autoclave cycle. For all emulsions, particle size before autoclaving as represented by D(4,3) was in a range of 0.30 to 0.45 μm. Emulsions were stable at high pH using TRIS and DEA buffer, and at low pH using phosphate buffer over varying concentrations of cinacalcet and soybean oil. Closer to pH 7 using phosphate buffer, increase in particle size was seen after autoclaving.
Particle size data is reported as D(4,3) before and after one autoclaving cycle.

[3] = emulsion with DEA buffer 0.05%, pH 9, Bolus dose, 2 mg/kg (conc. 10 mg/mL), 0 h
[4] = emulsion with DEA buffer 0.05%, pH 9, Bolus dose, 2 mg/kg (conc. 10 mg/mL), 48 h
[5] = emulsion with TRIS buffer 5 mM, pH 9, Bolus dose, 2 mg/kg (conc. 10 mg/mL), 0 h
[6] = emulsion with TRIS buffer 5 mM, pH 9, Bolus dose, 2 mg/kg (conc. 10 mg/mL), 48 h
[7] = emulsion with TRIS buffer 20 mM, pH 9, 2-hour infusion, 2 mg/kg (conc. 0.5 mg/mL), 0 h
[8] = emulsion with TRIS buffer 20 mM, pH 9, 2-hour infusion, 2 mg/kg (conc. 0.5 mg/mL), 48 h
[9] = solution in acetate mannitol buffer, pH 4, 2 hour infusion, 2 mg/kg (conc. 0.5 mg/mL), 0 h
[10] = solution in acetate mannitol buffer, pH 4, 2 hour infusion, 2 mg/kg (conc. 0.5 mg/mL), 48 h
[11] = solution in acetate mannitol buffer, pH 4, Bolus dose, 2 mg/kg (conc. 0.5 mg/mL), 0 h
[12] = solution in acetate mannitol buffer, pH 4, Bolus dose, 2 mg/kg (conc. 0.5 mg/mL), 48 h
[13] = solution in acetate mannitol buffer, pH 4, Bolus dose, 2 mg/kg (conc. 1 mg/mL), 0 h
[14] = solution in acetate mannitol buffer, pH 4, Bolus dose, 2 mg/kg (conc. 1 mg/mL), 48 h
[15] = DEA 0.05%, target cinacalcet 1 mg/mL, SBO conc. 10
[16] = DEA 0.05%, target cinacalcet 5 mg/mL, SBO conc. 5
[17] = DEA 0.05%, target cinacalcet 10 mg/mL, SBO conc. 10
[18] = DEA 0.1%, target cinacalcet 5 mg/mL, SBO conc. 5
[19] = DEA 0.2%, target cinacalcet 5 mg/mL, SBO conc. 5
[20] = DEA 0.3%, target cinacalcet 5 mg/mL, SBO conc. 5
[21] = No buffer, target cinacalcet 5 mg/mL, SBO conc. 10
[22] = PO4 buffer 15 mM, target cinacalcet 5 mg/mL, SBO conc. 10
[23] = TRIS 5 mM, target cinacalcet 1 mg/mL, SBO conc. 10
[24] = TRIS 5 mM, target cinacalcet 5 mg/mL, SBO conc. 10
[25] = TRIS 5 mM, target cinacalcet 10 mg/mL, SBO conc. 20
[26] = TRIS 10 mM, target cinacalcet 5 mg/mL, SBO conc. 5
[27] = TRIS 15 mM, target cinacalcet 5 mg/mL, SBO conc. 5
[28] = TRIS 20 mM, target cinacalcet 5 mg/mL, SBO conc. 5

For `C[C@@H](NCCCc1cccc(C(F)(F)F)c1)c1cccc2ccccc12` [Cinacalcet, N-(1-(R)-(1-naphthyl)ethyl]-3-[3-(trifluoromethyl)phenyl]-1-aminopropane], the local venous toxicity (rabbit ear vein; administered IV as a solution, acetate mannitol buffer at pH 4) was “mild to moderate”, the “local venous toxicity effects” value (rabbit ear vein; cinacalcet-containing emulsions, compared with solution) was “greatly reduced or completely eliminated” and the tolerability (rabbit ear vein; emulsion buffered with either TRIS or DEA, dosed as bolus) was “well tolerated”. The tolerability (rabbit ear vein; emulsion containing TRIS dosed as an infusion) was “well tolerated”, the Edema (rabbit ear vein; [3]) was 0.0 ± 0.0 and the Erythema (rabbit ear vein; [3]) was 0.3 ± 0.6. For the same compound, the Edema (rabbit ear vein; [4]) was 0.0 ± 0.0, the Erythema (rabbit ear vein; [4]) was 0.0 ± 0.0 and the Histopathology (rabbit ear vein; emulsion with DEA buffer 0.05%, pH 9, Bolus dose, observed for both placebo and cinacalcet emulsions) was “Mild to moderate perivascular acute”. It also gave an Edema (rabbit ear vein; [5]) of 0.0 ± 0.0, an Erythema (rabbit ear vein; [5]) of 0.0 ± 0.0 and an Edema (rabbit ear vein; [6]) of 0.0 ± 0.0. For the same compound, the Erythema (rabbit ear vein; [6]) was 0.0 ± 0.0, the Histopathology (rabbit ear vein; emulsion with TRIS buffer 5 mM, pH 9, Bolus dose, observed for both placebo and cinacalcet emulsions) was “Minimal to mild perivascular acute” and the Histopathology (rabbit ear vein; emulsion with TRIS buffer 20 mM, pH 9, 2-hour infusion, 2 mg/kg (conc. 0.5 mg/mL)) was “lipid emulsion was well tolerated as a 2 hour”. For the same compound, the Edema (rabbit ear vein; [7]) was 0.0 ± 0.0, the Erythema (rabbit ear vein; [7]) was 0.0 ± 0.0 and the Edema (rabbit ear vein; [8]) was 0.0 ± 0.0. For the same compound, the Erythema (rabbit ear vein; [8]) was 0.0 ± 0.0, the Histopathology (rabbit ear vein; solution in acetate mannitol buffer, pH 4, 2 hour infusion, 2 mg/kg (conc. 0.5 mg/mL)) was “mild to severe acute, necrotizing inflammation” and the Edema (rabbit ear vein; [9]) was 0.0 ± 0.0. For the same compound, the Erythema (rabbit ear vein; [9]) was 0.0 ± 0.0, the Edema (rabbit ear vein; [10]) was 3.3 ± 1.2 and the Erythema (rabbit ear vein; [10]) was 4.0 ± 0.0. The Histopathology (rabbit ear vein; solution in acetate mannitol buffer, pH 4, Bolus dose, 2 mg/kg) was “Mnimal to mild infiltrates of mixed”, the Edema (rabbit ear vein; [11]) was 0.0 ± 0.0 and the Erythema (rabbit ear vein; [11]) was 0.0 ± 0.0. It also gave an Edema (rabbit ear vein; [12]) of 1.7 ± 0.6, an Erythema (rabbit ear vein; [12]) of 2.7 ± 0.6 and an Edema (rabbit ear vein; [13]) of 0.0 ± 0.0. The Erythema (rabbit ear vein; [13]) was 0.0 ± 0.0, the Edema (rabbit ear vein; [14]) was 2.0 ± 1.7 and the Erythema (rabbit ear vein; [14]) was 2.7 ± 0.6. For the same compound, the Histopathology (rabbit ear vein; solution in acetate mannitol buffer, pH 4, Bolus dose, at the higher dose) was “Mild to severe effects seen at the higher”, the “tolerability when administered IV” value (rabbit ear vein; solution, acetate mannitol buffer at pH 4) was “poorly tolerated” and the “changes in particle size” value ([1]; 2 years at 5° C. and 25° C.) was “No significant changes”. The “cinacalcet assay and impurity levels” value ([1]; 2 years at 5° C. and 25° C.) was “within specifications”, the “cinacalcet assay and impurity levels” value ([1]; 9 months at 40° C.) was “within specifications” and the “changes in particle size” value ([1]; 18 months at 40° C.) was “No significant changes”. The “D(4, 3)” value [2, 15] was 0.44 μm, the pH [2, 15] was 8.81 and the “D(4, 3)” value [2, 16] was 0.39 μm. The pH [2, 16] was 8.77, the “D(4, 3)” value [2, 17] was 0.41 μm and the pH [2, 17] was 8.82. The “D(4, 3)” value [2, 18] was 0.40 μm, the pH [2, 18] was 8.95 and the “D(4, 3)” value [2, 19] was 0.35 μm. For the same compound, the pH [2, 19] was 9.13, the “D(4, 3)” value [2, 20] was 0.36 μm and the pH [2, 20] was 9.12. For the same compound, the “D(4, 3)” value [2, 21] was 1.48 μm, the pH [2, 21] was 8.45 and the pH ([2]; PO4 buffer 10 mM (first of two emulsions), target cinacalcet 5 mg/mL, SBO conc. 5) was 6.36. The pH ([2]; PO4 buffer 10 mM (second of two emulsions), target cinacalcet 5 mg/mL, SBO conc. 5) was 6.78, the “D(4, 3)” value ([2]; PO4 buffer 10 mM, pH 6.36, target cinacalcet 5 mg/mL, SBO conc. 5) was 0.39 μm and the “D(4, 3)” value ([2]; PO4 buffer 10 mM, pH 6.78, target cinacalcet 5 mg/mL, SBO conc. 5) was 0.76 μm. For the same compound, the “D(4, 3)” value [2, 22] was 1.59 μm, the pH [2, 22] was 7.15 and the “D(4, 3)” value [2, 23] was 0.48 μm. The pH [2, 23] was 8.75, the pH ([2]; TRIS 5 mM, target cinacalcet 5 mg/mL, SBO conc. 5) was 8.80 and the “D(4, 3)” value [2, 24] was 0.32 μm. For the same compound, the pH [2, 24] was 8.87, the pH ([2]; TRIS 5 mM, target cinacalcet 10 mg/mL, SBO conc. 10) was 8.82 and the “D(4, 3)” value [2, 25] was 0.36 μm. For the same compound, the pH [2, 25] was 8.82, the “D(4, 3)” value [2, 26] was 0.30 μm and the pH [2, 26] was 9.06. The “D(4, 3)” value [2, 27] was 0.34 μm, the pH [2, 27] was 9.04 and the “D(4, 3)” value [2, 28] was 0.29 μm. It also gave a pH [2, 28] of 9.13.
